Legend:
[1] = Stability in sugar-acid solution, quantified by GC/MS internal standard method; format: physicochemical; details: 0.1% in sugar-acid solution (7% granulated sugar, 0.12% citric acid); room temperature (25° C.), 8 weeks, light shielding
Description: A stability of the present compound was evaluated by the following procedure. An aqueous solution including 7% granulated sugar and 0.12% citric acid (hereinafter, which may be referred to as a sugar-acid solution) was prepared. To this sugar-acid solution, the present invention product 1-1 was added so that the concentration was 0.1% to obtain the present invention product 3-1. As a comparative reference to the present compound, citral was added to a separately prepared sugar-acid solution so that the concentration was 0.1% to obtain the comparative product 3-1. Then, the present invention product 3-1 and the comparative product 3-1 were stored at room temperature (25° C.) for 8 weeks under light shielding. On the present invention product 3-1 and the comparative product 3-1, the present compound and citral were quantitatively analyzed by the internal standard method by using 2-chlorophenol as an internal standard substance under the following GC analysis conditions. The measurements were performed by using a GC/MS (apparatus name: GC 7890A/MSD 5975C, manufactured by Agilent Technologies Japan, Ltd.). […]

[2] = Aroma properties: 1% ethanol solutions sniffed by panelists; details: 1% ethanol solution; sniffed by 5 well-trained panelists; representative comments
Description: An aroma of the present compound was evaluated by the following procedure. A 1% ethanol solution of the present invention product 1-1 was prepared and used as the present invention product 2-1. As a comparative reference to the present compound, a 1% ethanol solution of citral was prepared and used as the comparative product 2-1, and a 1% ethanol solution of 4,8-dimethylnona-3,7-dien-2-one was prepared and used as the comparative product 2-2. 5 well-trained panelists having 10 years or more of experience sniffed at the present invention product 2-1 and the comparative products 2-1 and 2-2, and commented on felt aromas.

[3] = Detecting threshold concentration; details: compared with citral

| Structure (SMILES) | concentration after storage relative to the initial concentration [1] | Comment (felt aromas) [2] | detecting threshold concentration [3] |
| --- | --- | --- | --- |
| CC(C)=CCCC(C)=CC=O [citral, reference compound] | completely disappeared | – | – |
| C=C(CCC=C(C)C)CC(C)=O [present compound, 8-methyl-4-methylenenona-7-en-2-one] | 90% | does not have the aspect of floral aromas | the same level as that of citral |
